Data as given in patent publication US20250250582A1, “Plant Cells and Plants Modified to Increase Herbicide Resistance and Stress Tolerance and Methods of Using the Same” (The Board of Trustees of the University of Arkansas, priority 2018, published 2025).
Several values for one entry are separate records, joined by “and”; a condition that tells them apart may be missing. Identical values can stand only once.

Assays:
[1] = tested on: susceptible E. colona (ECO-S); assay: RNA-sequencing differential gene expression, herbicide-treated vs nontreated ECO-S; conditions: ECO-S-T vs ECO-S-N, 24 h
Description: (§1) Pure-line generated seed of each accession were germinated in pots containing potting soil within a temperature/light controlled growth chamber set to a 14-hr day length, 33 C day temperature, and 24 C night time to simulate environmental conditions early in the rice growing season. A single plant was maintained in each of the pots and used for the treatments; two pots were used as individual biological replicates. […] Pots for each of the respective treatments were labeled as either ECO-R/S-T for the treated samples and ECO-R/S-N for the non-treated counterpart. To minimize the effect that the sprayer may play in the application, both plants of the ECO-R and ECO-S were treated at the same time. After approximately 30 minutes, allowing for the plants to dry, the treated and non-treated plants of both accessions were moved back into the growth chamber. Precisely 24-hours after application, the aboveground portion of each of the plants were removed and immediately frozen in liquid nitrogen to cease all biological function. Samples were then transferred to RNAlater™-ICE (Invitrogen, Carlsbad CA, USA) for shipment to the Clemson University Genomics Institute (CUGI), in Clemson, South Carolina.
(§2) RNA was extracted from the young leaf tissues of both replications for the ECO-R and ECO-S, T and N samples, at Clemson University. Total RNA was extracted with a kit according to the manufactures instructions. The extracted RNA was treated with DNase (Invitrogen, Calsbad, CA, USA) to remove any DNA contamination prior to further processing. The samples were prepared for sequencing by CUGI. For library preparation, the TruSeq Stranded Total RNA kit (Illumina Inc., San Diego, CA, USA) was used according to the instructions provided by the manufacturer to produce a paired-end library for sequencing. Ribosomal RNA was removed using target-specific oligonucleotides paired with rRNA removal beads, removing all cytoplasmic and mitochondrial rRNA that may result in poor quality results. RNA was fragmented and reverse transcribed to cDNA using random primers, followed by a second strand cDNA synthesis. Each fragment is then ligated with an additional ‘A’ and an adapter for sequencing. The PCR enriched product is then used to create the final cDNA library. All samples were sequenced on an Illumina Hiseq 2500 platform housed in the Holdings Cancer Center at the Medical University of South Carolina, Charleston, SC, USA. Samples, regardless of treatments or replication were ran across three lanes to reduce sequencing errors from the equipment. The resulting data were processed by CUGI.
(§3) A de novo transcriptome was assembled from the treatments described for this experiment as well as several treatments, which included herbicides profiled in ECO-R. The treatments were applied to both ECO-R and ECO-S samples with two replications as described previously. In total, 20 individual plants, from both the ECO-R and ECO-S accessions, as well as T and NT samples, were used for the assembly. The transcriptome was assembled using the Trinity RNA-Seq pipeline (Broad Institute, Cambridge, MA, USA). Raw data were assessed for quality using FastQC (Babraham Institute, Cambridge, UK) and then processed to remove adapter sequences and low quality bases using a sliding window method. The processed data were then rerun using FastQC to ensure high quality reads. Using the TrinityRNASeq 2.2.0 software, the samples were normalized, by replication, using a coverage size of 100 and kmer of 32. The normalized reads were then assembled as transcripts and genes using Trinity with the stranded library set as the default.

[2] = tested on: ECO-R compared to ECO-S after herbicide treatment; assay: RNA-sequencing differential gene expression, ECO-R-T compared to ECO-S-T
Description: as §1, §2, §3

[3] = tested on: multiple-resistant E. colona (ECO-R); assay: Herbicide resistance profile of ECO-R; format: in vivo, Echinochloa colona; conditions: data not shown
Description: Beginning in 2010, through the 2016 cropping cycle, Echinochloa spp. from throughout the rice producing counties of Arkansas, USA, located along the Mississippi River were sampled for a survey of the current status of herbicide resistance. Seeds were bulk sampled from plants that had matured in rice and soybean production fields, which had survived at least one herbicide application, were collected and sent to the University of Arkansas Altheimer Laboratory in Fayetteville for characterization and evaluation of herbicide resistance to common rice herbicides. […] From this screening program, two populations of E. colona were selected for use in this experiment. […] To establish inbred and homozygous accessions for the experiment, a single plant, verified as resistant/susceptible of ECO-R and ECO-S were grown in isolation to produce seed for further experiments.
Accession source and population profiling. From 2010 to 2016, the University of Arkansas weed physiology group has been collecting putative herbicide-resistant Echinochloa populations from rice production fields throughout the state of Arkansas. […] Collections took place in the late summer to early fall prior to rice harvest; these accessions were bulk sampled by in-field location and farm, with field histories collected when possible. All of the samples were submitted to the University of Arkansas Altheimer Laboratory for assessment of their resistance profile and characterized according to their species. […] Populations with unique profiles and of interest for further research were then grown in isolation to produce pureline seed. […] Another accession, E. colona susceptible (ECO-S), was also selected and grown in isolation. This accession was selected because of its similar cropping history and geographic location, as well as its high level of susceptibility to the herbicides of interest.

[4] = tested on: resistant Echinochloa species; assay: Determination of resistance level (visual injury), resistant accessions; format: in vivo, E. colona and E. crus-galli; conditions: visual 3 wk after treatment
Description: The experiment was repeated once.

CCC(=O)Nc1ccc(Cl)c(Cl)c1 [propanil]
ABC transporter G family member 5 Fold Change [1]: 2.8 fold
ABC transporter G family member 42 Fold Change [1]: 1.5 fold
ACC synthase fold change [1]: −2.7 fold
CYP71A1 Fold Change [1]: 2.9 fold
CYP71A21 Fold Change [1]: 5.1 fold
CYP71D7 Fold Change [1]: 5.9 fold
CYP94C1 Fold Change [1]: 3.7 fold and 5.4 fold and 5.5 fold
CYP716B1 Fold Change [1]: 3.0 fold
GSTU1 Fold Change [1]: 2.5 fold and 2.7 fold
GSTU6 Fold Change [1]: 2.3 fold and 4.1 fold
Heparan-alpha-glucosaminide N-acetyltransferase Fold Change [1]: 2.5 fold
MSR-1 Fold Change [1]: 2.1 fold
MYB44 fold change [1]: > 3 fold
MYC3 fold change [1]: 3.4 fold
Probable glutathione S-transferase Fold Change [1]: 1.8 fold
RGA2 fold change [1]: > 7.5 fold
RGA3 fold change [1]: 1.7 fold
UGT73B4 Fold Change [1]: 3.8 fold and 5.7 fold
UGT73C1 Fold Change [1]: 3.1 fold
UGT73C2 Fold Change [1]: 3.3 fold
UGT74D1 Fold Change [1]: 2.2 fold
UGT75C1 Fold Change [1]: 2.9 fold
Uncharacterized acetyltransferase At3g50280 Fold Change [1]: 2.5 fold and 3.5 fold
multiple ACC oxidase genes fold change [1]: −1.8 to −2.2 fold
phosphoenolypyruvate carboxylase fold change [1]: −2.1 to −3.4 fold
pyruvate dehydrogenase fold change [1]: −5.6 to −6.2 fold
sugar transporter ERD6-like 6 fold change [1]: 2.3 fold
DNA and RNA polymerase-related transcripts fold change ([1]; repressed by as much as): ≤ −8.7 fold
ACCase and ACCase 2 fold change ([1]; repressed up to): up to −6.9 fold
ABA 8′-hydroxylase 1 transcripts fold change ([2]; ECO-R-T vs ECO-S-T, 24 h): < −6.5 fold
ABA receptor PYL5 fold change ([2]; ECO-R-T vs ECO-S-T, 24 h): −4.8 fold
ABA receptor PYL8 fold change ([2]; ECO-R-T vs ECO-S-T, 24 h): −3.7 fold
ACC synthase fold change ([2]; ECO-R-T vs ECO-S-T, 24 h): 8.6 fold
Beta-glucosidase 22 fold change ([2]; ECO-R-T vs ECO-S-T, 24 h): 5.9 fold
CYP71A1 Fold Change ([2]; ECO-R-T vs ECO-S-T, 24 h): 3.6 fold
CYP72A15 Fold Change ([2]; ECO-R-T vs ECO-S-T, 24 h): 6.6 fold and 11.3 fold
DNA-directed RNA polymerase 1 subunit RPA112 III fold change ([2]; ECO-R-T vs ECO-S-T, 24 h): 10.3 fold
ERF4 fold change ([2]; ECO-R-T vs ECO-S-T, 24 h): 4.3 fold
ERF7 fold change ([2]; ECO-R-T vs ECO-S-T, 24 h): 8 fold
ERF11 fold change ([2]; ECO-R-T vs ECO-S-T, 24 h): 3.4 fold
GST1 fold change ([2]; ECO-R-T vs ECO-S-T, 24 h): 3.9 fold
GST4 fold change ([2]; ECO-R-T vs ECO-S-T, 24 h): > 5.3 fold
GSTU17 fold change ([2]; ECO-R-T vs ECO-S-T, 24 h): 10.9 fold
UGT73D1 fold change ([2]; ECO-R-T vs ECO-S-T, 24 h): 7.3 fold
UGT88A1 Fold Change ([2]; ECO-R-T vs ECO-S-T, 24 h): 3.2 fold
UGT88F3 fold change ([2]; ECO-R-T vs ECO-S-T, 24 h): 5.9 fold
ferredoxin-6 fold change ([2]; ECO-R-T vs ECO-S-T, 24 h): −6.5 fold
nitrate reductase fold change ([2]; ECO-R-T vs ECO-S-T, 24 h): < −6 fold
nitrate transporters fold change ([2]; ECO-R-T vs ECO-S-T, 24 h): < −4 fold
polymerase III subunit 2 fold change ([2]; ECO-R-T vs ECO-S-T, 24 h): 10.8 fold
trehalose biosynthesis enzymes fold change ([2]; ECO-R-T vs ECO-S-T, 24 h): < −3 fold
Phosphoenolpyruvate carboxylase (PEPc) kinase 1 fold change ([2]; in vivo): > 5 fold
level of resistance [3]: > 8 × field dose
injury of ECO187 ([4]; 2 X dose (4480 g ai/ha)): 97%
injury of resistant Echinochloa species ([4]; 2 X dose, propanil range excludes ECO187): 27-57%
